In ChEMBL document CHEMBL5223187, “A Quantum Mechanics-Based Method to Predict Intramolecular Hydrogen Bond Formation Reflecting P-glycoprotein Recognition” (ACS Med Chem Lett, 2023):

How the values were obtained:
Beta-secretase 1 = Beta-secretase 1 (Homo sapiens, UniProt P56817); test: Inhibition of BACE1 (unknown origin) by HTRF assay
[1] = Apparent permeability in pig LLC-PK1 cells by LC-MS/MS analysis; type: ADME, cell-based, Sus scrofa

Beta-secretase 1, sequence (P56817 whole entry): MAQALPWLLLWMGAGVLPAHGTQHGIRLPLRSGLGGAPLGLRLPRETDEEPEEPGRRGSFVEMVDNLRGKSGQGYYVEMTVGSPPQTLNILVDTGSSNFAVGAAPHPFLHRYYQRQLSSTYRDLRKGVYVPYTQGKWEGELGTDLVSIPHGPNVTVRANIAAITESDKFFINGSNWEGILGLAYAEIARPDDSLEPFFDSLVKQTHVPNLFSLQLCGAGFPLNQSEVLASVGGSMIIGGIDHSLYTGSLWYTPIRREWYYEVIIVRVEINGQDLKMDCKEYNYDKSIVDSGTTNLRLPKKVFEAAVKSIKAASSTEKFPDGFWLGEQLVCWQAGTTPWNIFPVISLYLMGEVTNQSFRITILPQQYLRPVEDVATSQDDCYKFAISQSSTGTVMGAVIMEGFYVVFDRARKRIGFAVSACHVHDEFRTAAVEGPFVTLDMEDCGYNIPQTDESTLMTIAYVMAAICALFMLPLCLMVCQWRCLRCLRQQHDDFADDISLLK

Row | IC50 (Beta-secretase 1) | Papp [1] | SMILES
1 | 0.155 µM | – | C[C@@]1(c2cc(NC(=O)c3ncc(C#N)cc3F)ccc2F)C=C(CF)OC(N)=N1
2 | 0.241 µM | – | COc1cnc(C(=O)Nc2ccc(F)c([C@]3(C)C=C(CF)OC(N)=N3)c2)nc1
3 | 0.491 µM | – | COc1cnc(C(=O)Nc2ccc(F)c([C@]3(C)C=C(CF)OC(N)=N3)c2)c(C)n1
4 | 0.0823 µM | – | C[C@@]1(c2cc(NC(=O)c3ccn(C(F)F)n3)ccc2F)C=C(CF)OC(N)=N1
5 | – | 230 nm/s | C[C@@]1(c2cc(NC(=O)c3ccc(C#N)cn3)ccc2F)C=CSC(N)=N1 [ATABECESTAT]
6 | – | 330 nm/s | C[C@@]1(c2cc(-c3cncnc3)c(F)cc2F)CCSC(N)=N1 [LY-2811376]
